Experimental data from paper PMC9207806 (ACS Chemical Biology, 2022).
Where a name gives a salt, the structure may show the parent alone. Read-outs that look alike come from different tables or passages of the source.

Biological target: T1, VACV D9 decapping enzyme (Vaccinia virus, UniProt P04311)
T1 construct: His-tag (C); made in house
Experiment: biochemical
Type: biochemical
Description: Point fluorescence measurements were performed using the BioTek Synergy H1 microplate reader. Before each measurement, the reaction buffer was degassed. Experiments were performed in the Greiner 96-well, black, non-binding plates at 30 °C. Before the measurement, the plate was preincubated for 15 min at 30 °C with mixing (300 rpm). The point fluorescence was registered with 1 min interval and detection at 345 nm excitation wavelength and 378 nm emission wavelength.
Experiments to determine IC50 parameters were performed as point fluorescence measurements. Each well contained an appropriate buffer (10 mM MOPS·HCl, pH 7.0, 100 mM KOAc, containing 2 mM MgCl2, 0.3 mM MnCl2, and 2 mM DTT) with addition of 0.1% BSA, a fluorescent substrate (3 μM of probe 1b), an inhibitor (in half-logarithmic dilution, cinh ∈ 0, 100 μM), and an enzyme (5 nM of D9) to a final volume of 150 μL. To determine the IC50 values, a three parameter dose–response formula with standard hill slope from GraphPad Prism software was fitted [drawing 3] where V/V0 is the relative initial rate of the reaction, Imin and Imax are bottom and top plateaus, and Cinh is the concentration of the inhibitor.

[1] = in-house nucleotide library (Table S1, Figure 3), 3 μM probe 1b, 5 nM D9, 30 °C, means of 3 independent experiments ± SEM, read-out: IC50, nucleotide-derived compounds, FLINT HTS assay
[2] = read-out: IC50, nucleotide-derived compounds, FLINT HTS assay, in-house nucleotide library (Table S1, Figure 3), 3 μM probe 1b, 5 nM D9, 30 °C, means of 3 independent experiments ± SEM

Row | Structure (SMILES) | IC50 [1] | also measured
1 | Nc1ncnc2c1ncn2[C@@H]1O[C@H](COP(O)(=S)OP(=O)(O)OP(O)(=S)OC[C@H]2O[C@@H](n3cnc4c(N)ncnc43)[C@H](O)[C@@H]2O)[C@@H](O)[C@H]1O (stereo partly drawn) [ApSppSA] | > 100 µM | –
2 | Nc1ncnc2c1ncn2[C@@H]1O[C@H](COP(=O)(O)OP(=O)(O)OP(=O)(O)OC[C@@H]2O[C@H](n3cnc4c(N)ncnc43)[C@@H](O)[C@H]2O)[C@@H](O)[C@H]1O [ApppA] | > 100 µM | –
3 | Nc1nc2ccc(Cl)cc2c2nc(-c3ccco3)nn12 [CGS-15943, reference compound] | – | IC50: 20.1 ± 5.2 µM
4 | Cc1n([C@@H]2O[C@H](COP(=O)(O)OP(=O)(O)O)[C@@H](O)[C@H]2O)c2nc(N)[nH]c(=O)c2[n+]1C [Compound 8Mem7GDP, 8Mem7GDP] | > 100 µM | –
5 | Cc1n([C@@H]2O[C@H](COP(=O)(O)OP(=O)(O)OP(=O)(O)O)[C@@H](O)[C@H]2O)c2nc(N)[nH]c(=O)c2[n+]1C [Compound 8Mem7GTP, 8Mem7GTP] | 42.9 ± 7.8 µM | –
6 | Nc1nc2c(ncn2[C@@H]2O[C@H](COP(=O)(O)OP(=O)(O)OP(=O)(O)O)[C@@H](O)[C@H]2O)c(=O)[nH]1 [GTP, reference compound] | 15.4 ± 2.7 µM | –
7 | Nc1nc2c(ncn2[C@@H]2O[C@H](COP(=O)(O)OP(=O)(O)OP(=O)(O)OC[C@H]3O[C@@H](n4cnc5c(N)ncnc54)[C@H](O)[C@@H]3O)[C@@H](O)[C@H]2O)c(=O)[nH]1 [GpppA] | > 100 µM | –
8 | Nc1nc2c(ncn2[C@@H]2O[C@H](COP(=O)(O)OP(=O)(O)OP(=O)(O)OC[C@H]3O[C@@H](n4cnc5c(=O)[nH]c(N)nc54)[C@H](O)[C@@H]3O)[C@@H](O)[C@H]2O)c(=O)[nH]1 [GpppG] | > 100 µM | –
9 | Nc1nc2c(cnn2CCc2ccccc2)c2nc(-c3ccco3)nn12 [SCH 58261, reference compound] | – | IC50: 4.5 ± 0.8 µM
10 | COc1cc(NS(C)(=O)=O)ccc1Nc1c2ccccc2nc2ccccc12 [amsacrine hydrochloride, reference compound] | – | IC50: 12.6 ± 1.7 µM
11 | C[n+]1cn([C@@H]2O[C@H](COP([O-])(=S)OP(=O)(O)O)[C@@H](O)[C@H]2O)c2nc(N)[nH]c(=O)c21 (stereo partly drawn) [m7GDPαS D1] | 8.3 ± 1.7 µM | –
12 | C[n+]1cn([C@@H]2O[C@H](COP(O)(=S)OP(=O)(O)O)[C@@H](O)[C@H]2O)c2nc(N)[nH]c(=O)c21 (stereo partly drawn) [m7GDPαS D2] | 7.6 ± 1.2 µM | –
13 | Cn1c[n+]([C@@H]2O[C@H](COP(=O)(O)O)[C@@H](O)[C@H]2O)c2nc(N)[nH]c(=O)c21 [m7GMP] | > 100 µM | –
14 | C[n+]1cn([C@@H]2O[C@H](COP(O)(=S)OP(=O)(O)OP(=O)(O)O)[C@@H](O)[C@H]2O)c2nc(N)[nH]c(=O)c21 (stereo partly drawn) [m7GTPαS] | 0.64 ± 0.06 µM | –
15 | CO[C@@H]1[C@H](OP(=O)(O)OC[C@H]2O[C@@H](n3cnc4c(=O)[nH]c(N)nc43)[C@H](O)[C@@H]2O)[C@@H](COP(=O)(O)OP(=O)([O-])OP(=O)(O)OC[C@H]2O[C@@H](n3c[n+](C)c4c(=O)[nH]c(N)nc43)[C@H](O)[C@@H]2OC)O[C@H]1n1cnc2c(=O)[nH]c(N)nc21 [m7GmpppGmpG] | – | IC50 [2]: 3.9 ± 0.5 µM; IC50 (read-out: IC50, nucleotide-derived compounds, FLINT HTS assay, in-house nucleotide library (Table S1, Figure 3), 3 μM probe 1b, 5 nM D9, 30 °C, means of 3 independent experiments ± SEM, listed as m^7GmpppGmpG): ~4 µM
16 | C[n+]1cn([C@@H]2O[C@H](COP(=O)(O)CP(=O)(O)OP(=O)(O)OC[C@H]3O[C@@H](n4cnc5c(=O)[nH]c(N)nc54)[C@H](O)[C@@H]3O)[C@@H](O)[C@H]2O)c2nc(N)[nH]c(=O)c21 [m7GpCH2ppG] | 16.8 ± 3.3 µM | –

Row | Structure (SMILES) | IC50 [1] | also measured
17 | C[n+]1cn([C@@H]2O[C@H](COP(=O)(O)CP(=O)([O-])OP(=O)(O)O)[C@@H](O)[C@H]2O)c2nc(N)nc(O)c21 [m7GpCH2pp] | – | IC50 [2]: 0.58 ± 0.06 µM
18 | C[n+]1cn(C2OC(COP(=O)(O)OP(=O)([O-])C(Cl)(Cl)P(=O)(O)OP(=O)(O)OCC3OC(n4cnc5c(=O)[nH]c(N)nc54)C(O)C3O)C(O)C2O)c2nc(N)nc(O)c21 (stereo not drawn) [m7GppCCl2ppG] | 41.4 ± 6.6 µM | –
19 | C[n+]1cn(C2OC(COP(=O)(O)OP(=O)([O-])C(F)(F)P(=O)(O)OP(=O)(O)OCC3OC(n4cnc5c(=O)[nH]c(N)nc54)C(O)C3O)C(O)C2O)c2nc(N)nc(O)c21 (stereo not drawn) [m7GppCF2ppG] | 16.7 ± 3.1 µM | –
20 | C[n+]1cn(C2OC(COP(=O)([O-])OP(=O)(O)C(F)(F)P(=O)(O)OP(=O)([O-])OCC3OC(n4c[n+](C)c5c(=O)[nH]c(N)nc54)C(O)C3O)C(O)C2O)c2nc(N)[nH]c(=O)c21 (stereo not drawn) [m7GppCF2ppm7G] | 14.7 ± 2.6 µM | –
21 | CO[C@@H]1[C@H](OP(=O)(O)OC[C@H]2O[C@@H](n3cnc4c(=O)[nH]c(N)nc43)[C@H](O)[C@@H]2O)[C@@H](COP(=O)(O)CP(=O)(O)OP(=O)([O-])OC[C@H]2O[C@@H](n3c[n+](C)c4c(O)nc(N)nc43)[C@H](O)[C@@H]2O)O[C@H]1n1cnc2c(N)ncnc21 [m7GppCH2pAmpG] | 27.4 ± 6.2 µM | –
22 | C[n+]1cn([C@@H]2O[C@H](COP(=O)([O-])OP(=O)(O)CP(=O)(O)O)[C@@H](O)[C@H]2O)c2nc(N)nc(O)c21 [m7GppCH2p] | 1.1 ± 0.1 µM | –
23 | C[n+]1cn(C2OC(COP(=O)([O-])OP(=O)(O)OP(=O)(O)OCC3OC(n4cnc5c(=S)[nH]c(N)nc54)C(O)C3O)C(O)C2O)c2nc(N)[nH]c(=O)c21 (stereo not drawn) [m7Gppp6SG] | 14.1 ± 1.7 µM | –
24 | CNc1ncnc2c1ncn2[C@@H]1O[C@H](COP(=O)(O)OP(=O)(O)OP(=O)(O)OC[C@H]2O[C@@H](n3c[n+](C)c4c(=O)[nH]c(N)nc43)[C@H](O)[C@@H]2O)[C@@H](O)[C@H]1O [m7Gppp(m6A)] | 31.5 ± 5.9 µM | –
25 | Cn1c[n+]([C@@H]2O[C@H](COP(=O)(O)OP(=O)(O)OP(=O)(O)OC[C@H]3O[C@@H](n4cnc5c(N)ncnc54)[C@H](O)[C@@H]3O)[C@@H](O)[C@H]2O)c2nc(N)[nH]c(=O)c21 [m7GpppA] | 33 ± 5.9 µM | –
26 | CO[C@@H]1[C@H](O)[C@@H](COP(=O)(O)OP(=O)(O)OP(=O)(O)OC[C@H]2O[C@@H]([n+]3cn(C)c4c(=O)[nH]c(N)nc43)[C@H](O)[C@@H]2O)O[C@H]1n1cnc2c(N)ncnc21 [m7GpppAm] | 19.8 ± 3.6 µM | –
27 | CO[C@@H]1[C@H](OP(=O)(O)OC[C@H]2O[C@@H](n3cnc4c(=O)[nH]c(N)nc43)[C@H](O)[C@@H]2O)[C@@H](COP(=O)(O)OP(=O)(O)OP(=O)([O-])OC[C@H]2O[C@@H]([n+]3cn(C)c4c(=O)[nH]c(N)nc43)[C@H](O)[C@@H]2O)O[C@H]1n1cnc2c(N)ncnc21 [m7GpppAmpG] | 20.4 ± 3.4 µM | –
28 | CO[C@@H]1[C@H](OP(=O)(O)OC[C@H]2O[C@@H](n3cnc4c(=O)[nH]c(N)nc43)[C@H](O)[C@@H]2O)[C@@H](COP(=O)(O)OP(=O)(O)OP(=O)([O-])OC[C@H]2O[C@@H]([n+]3cn(C)c4c(=O)[nH]c(N)nc43)[C@H](O)[C@@H]2O)O[C@H]1n1cnc2c(=O)[nH]c(N)nc21 [m7GpppGmpG] | 12 ± 2.4 µM | –
29 | CNc1ncnc2c1ncn2[C@@H]1O[C@H](COP(=O)(O)OP(=O)(O)OP(=O)(O)OC[C@H]2O[C@@H](n3c[n+](C)c4c(=O)[nH]c(N)nc43)[C@H](O)[C@@H]2O)[C@@H](OP(=O)(O)OC[C@H]2O[C@@H](n3cnc4c(=O)[nH]c(N)nc43)[C@H](O)[C@@H]2O)[C@H]1O [m7Gpppm6ApG] | 16.9 ± 3.2 µM | –
30 | C[n+]1cn([C@@H]2O[C@H](COP(=O)(O)OP(=O)(O)OP(=O)(O)OC[C@H]3O[C@@H](n4c[n+](C)c5c(=O)[nH]c(N)nc54)[C@H](O)[C@@H]3O)[C@@H](O)[C@H]2O)c2nc(N)[nH]c(=O)c21 [m7Gpppm7G] | 14.3 ± 2.1 µM | –
31 | C[n+]1cn(C2OC(COP(=O)([O-])OP(=O)(O)OP(=O)(O)OP(=O)(O)OP(=O)(O)OCC3OC(n4cnc5c(=O)[nH]c(N)nc54)C(O)C3O)C(O)C2O)c2nc(N)[nH]c(=O)c21 (stereo not drawn) [m7GpppppG] | 13.9 ± 2.5 µM | –
32 | CO[C@H]1[C@@H](O)[C@H]([n+]2cn(C)c3c(=O)[nH]c(N)nc32)O[C@@H]1COP(=O)([O-])OP(=O)(O)OP(=O)(O)OC[C@H]1O[C@@H](n2cnc3c(=O)[nH]c(N)nc32)[C@H](O)[C@@H]1O [m27,3’OGpppG] | 10.6 ± 1.1 µM | –
